Patent publication US10166218B2, “3-(1H-indol-2-yl)-1H-pyrazolo[3,4-C]pyridines and therapeutic uses thereof” (Samumed, LLC, priority 2015, dated 2019)

How the values were obtained:
Type in all cases: cell-based
SW480 colon cancer cells = experiment: Cell viability assay (CellTiter-Blue) in SW480 colon cancer cells; conditions: Homo sapiens, 96 h, four days; for inhibition at 10 µM: read-out: percent inhibition at 10 μM (given for EC50 of >10 μM); for EC50: CellTiter-Blue
How it was run: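 SW480 cells (~2×10^3 per well) were exposed to compound for four days at 37 °C/5% CO2, using 8-point 1:3 dilutions from 10 μM to 0.0045 μM in duplicate. Viability was read by resazurin reduction (CellTiter-Blue, ~3 h, Ex 560/Em 590 nm). EC50 came from non-linear regression; above 10 μM, percent inhibition at 10 μM is given.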

[1] = system: Wnt activity (Sp5-Luc reporter, TCF/LEF binding sites) in SW480 colon carcinoma cells; experiment: Screening assay for Wnt activity: Sp5-Luc reporter gene assay in stably transduced SW480 cells; conditions: Homo sapiens; for EC50: overnight incubation; for inhibition at 10 µM: read-out: percent inhibition at 10 μM (given for EC50 of >10 μM)
How it was run: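 Wnt-driven firefly luciferase in SW480 colon carcinoma cells reports pathway activity after overnight compound exposure (10 μM top concentration, 3-fold steps). Signal is normalized to DMSO controls.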

IL-6 (THP-1 cells) = experiment: Inhibition of IL-6 in LPS-stimulated THP-1 human monocyte cells (HTRF); conditions: for EC50: inhibition of IL-6 in LPS-stimulated THP-1 cells, HTRF, 10-point dose-response starting from 10 μM; for inhibition at 10 µM: IL-6 assay in LPS-stimulated THP-1 cells, given only where EC50 >10 μM, meaning not given (top concentration 10 μM), read-out: percentage given in parentheses after EC50 >10
How it was run: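 THP-1 cells, serum-reduced (1% FBS) for 24 h, were preincubated with compound (10-point 1:3 series from 10 μM, 0.1% DMSO) for 2 h, then stimulated with 500 ng/mL LPS for 22 h at 37° C. IL-6 was read by HTRF (665/620 nm ratio) and normalized to DMSO. EC50 from four-parameter fit; % inhibition at 10 μM given if EC50 >10 μM.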

| Structure (SMILES) | inhibition at 10 µM (SW480 colon cancer cells) [%] | EC50 (SW480 colon cancer cells) [µM] | EC50 [1] [µM] | EC50 (IL-6 (THP-1 cells)) [µM] | inhibition at 10 µM [1] [%] | inhibition at 10 µM (IL-6 (THP-1 cells)) [%] |
| --- | --- | --- | --- | --- | --- | --- |
| c1cnc2cc(-c3n[nH]c4cnc(-c5cncc(CNCC6CCCC6)c5)cc34)[nH]c2c1 [Compound 529, 1-(5-(3-(1H-Pyrrolo[3,2-b]pyridin-2-yl)-1H-pyrazolo[3,4-c]pyridin-5-yl)pyridin-3-yl)-N-(cyclopentylmethyl)methanamine] | 0 | > 10 | 2.31 | 0.999 |  |  |
| Fc1ccccc1-c1cccc2[nH]c(-c3n[nH]c4cnc(-c5cn[nH]c5)cc34)cc12 [Compound 567, 3-(4-(2-Fluorophenyl)-1H-indol-2-yl)-5-(1H-pyrazol-4-yl)-1H-pyrazolo[3,4-c]pyridine] | 46.1 | > 10 | 0.203 | 0.438 |  |  |
| CN(C)CCOc1cncc(-c2cc3c(-c4cc5c(-c6cccnc6)cccc5[nH]4)n[nH]c3cn2)c1 [Compound 591, N,N-Dimethyl-2-((5-(3-(4-(pyridin-3-yl)-1H-indol-2-yl)-1H-pyrazolo[3,4-c]pyridin-5-yl)pyridin-3-yl)oxy)ethan-1-amine] |  | 2.78 | 2.74 | 1.46 |  |  |
| Cn1cc(-c2cc3c(-c4cc5c(-c6ccncc6)cccc5[nH]4)n[nH]c3cn2)cn1 [Compound 600, 5-(1-Methyl-1H-pyrazol-4-yl)-3-(4-(pyridin-4-yl)-1H-indol-2-yl)-1H-pyrazolo[3,4-c]pyridine] | 45.1 | > 10 | 0.027 | 0.044 |  |  |
| O=C(CC1CCNCC1)Nc1cncc(-c2cc3c(-c4cc5c(-c6ccccn6)cccc5[nH]4)n[nH]c3cn2)c1 [Compound 621, 2-(Piperidin-4-yl)-N-(5-(3-(4-(pyridin-2-yl)-1H-indol-2-yl)-1H-pyrazolo[3,4-c]pyridin-5-yl)pyridin-3-yl)acetamide] | 29.3 | > 10 | > 10 | 1.65 | 46.2 |  |
| c1cc(N2CCCCC2)c2cc(-c3n[nH]c4cnc(-c5cncc(OC6CCCCC6)c5)cc34)[nH]c2c1 [Compound 635, 5-(5-(Cyclohexyloxy)pyridin-3-yl)-3-(4-(piperidin-1-yl)-1H-indol-2-yl)-1H-pyrazolo[3,4-c]pyridine] | 26.8 | > 10 | 3.84 | > 10 |  | 0 |
| c1cc(-c2ccoc2)c2cc(-c3n[nH]c4cnc(-c5cn[nH]c5)cc34)[nH]c2c1 [Compound 711, 3-(4-(Furan-3-yl)-1H-indol-2-yl)-5-(1H-pyrazol-4-yl)-1H-pyrazolo[3,4-c]pyridine] | 45.1 | > 10 | 0.203 | > 10 |  | 0 |
| c1csc(-c2cccc3[nH]c(-c4n[nH]c5cnc(C6CCNCC6)cc45)cc23)c1 [Compound 725, 5-(Piperidin-4-yl)-3-(4-(thiophen-2-yl)-1H-indol-2-yl)-1H-pyrazolo[3,4-c]pyridine] | 8.1 | > 10 | > 10 | > 10 | 25.9 | 45.4 |
| CN(C)CCNc1cc(F)cc(-c2cccc3[nH]c(-c4n[nH]c5cnc(-c6cncc(O)c6)cc45)cc23)c1 [Compound 817, 5-(3-(4-(3-((2-(Dimethylamino)ethyl)amino)-5-fluorophenyl)-1H-indol-2-yl)-1H-pyrazolo[3,4-c]pyridin-5-yl)pyridin-3-ol] |  | 1.07 | 0.407 | 0.232 |  |  |
| Cn1cc(-c2cc3c(-c4cc5ncccc5[nH]4)n[nH]c3cn2)cn1 [Compound 1022, 5-(1-Methyl-1H-pyrazol-4-yl)-3-(1H-pyrrolo[3,2-b]pyridin-2-yl)-1H-pyrazolo[3,4-c]pyridine] |  | 2.56 | 0.047 | 0.344 |  |  |
| CN(C)CCOc1cncc(-c2cc3c(-c4cc5ncccc5[nH]4)n[nH]c3cn2)c1 [Compound 1029, 2-((5-(3-(1H-Pyrrolo[3,2-b]pyridin-2-yl)-1H-pyrazolo[3,4-c]pyridin-5-yl)pyridin-3-yl)oxy)-N,N-dimethylethan-1-amine] | 17.1 | > 10 | 3.06 | 2.45 |  |  |
